Measurements reported in ChEMBL document CHEMBL5729071, “Cyano thienotriazolodiazepines and uses thereof” (2022).

Biological target: Bromodomain-containing protein 4 (Homo sapiens, UniProt O60885)
Experiment: Assays were performed as described previously with minor modifications from the manufacturer's protocol (PerkinElmer, USA). All reagents were diluted in 50 mM HEPES, 100 mM NaCl, 0.1% BSA, pH 7.4 supplemented with 0.05% CHAPS and allowed to equilibrate to room temperature prior to addition to plates. […] Plates were sealed and incubated for a further 30 minutes, before the addition of 4 μl of streptavidin-coated donor beads (25 μg/ml) and 4 μl nickel chelate acceptor beads (25 μg/ml) under low light conditions. Plates were foil-sealed to protect from light, incubated at room temperature for 60 minutes and read on a PHERAstar FS plate reader (BMG Labtech, Germany) using an AlphaScreen 680 excitation/570 emission filter set. IC50 values were calculated in Prism 5 (GraphPad Software, USA) after normalization against corresponding DMSO controls and are given as the final concentration of compound in the 20 μl reaction volume.

## Cc1sc2c(c1C)C(c1ccc(C#N)cc1)=N[C@@H](CC(=O)OC(C)(C)C)c1nnc(C)n1-2
  IC50: 97 nM
